Laboratory results published in patent US20190008848A1, “IDENTIFICATION OF ADDITIONAL ANTI-PERSISTER ACTIVITY AGAINST BORRELIA BURGDORFERI FROM AN FDA DRUG LIBRARY” (THE JOHNS HOPKINS UNIVERSITY, priority 2015, published 2019).
Entries after “also recorded” stand apart in the source; their conditions may differ. Read-outs that look alike come from different tables or passages of the source.

What was measured:
[1] = tested on: growing B. burgdorferi; assay: MIC of active hits; format: cell-based, Borrelia burgdorferi
[2] = tested on: stationary phase B. burgdorferi; assay: SYBR Green I/PI viability assay (drug library screen, plate reader); details: for viability at 50 µM: Borreliella burgdorferi, 168 h; for viability at 50 µM / Residual viable cells (SYBR Green/PI) / Residual viable cells (SYBR/PI): drugs 50 μM; for activity against stationary phase B. burgdorferi (in words): screen at 50 μM, 7 days; for Residual viable cells (SYBR Green/PI): Table 1; for Residual viable cells (SYBR/PI): Table 3
Procedure: (§1) Borrelia burgdorferi strain B31 (ATCC35210) was received from the […] (Manassas, Va., USA) and was grown in BSK-H medium (HiMedia Laboratories, Mumbai, India) and 6% rabbit serum (Sigma Aldrich, St. Louis, Mo., USA). The culture was filtered and sterilized using a […] and incubated in capped sterile 50 mL conical tubes (BD Biosciences, CA, USA) at 33° C. for 7 days without antibiotics until the culture reached stationary phase.
(§2) The cultures were examined using a Nikon Eclipse E800 microscope with differential interference contrast and epifluorescent illumination. The pictures were captured using a SPOT slider color camera. A SYBR Green I/PI assay was used to assess the viability of the bacterial sample using the ratio of live to dead B. burgdorferi (measured with green and red fluorescence, respectively) as measured by a plate reader.
(§3) Briefly, prediluted drug stock (10 μL) was added to 7 day old stationary phase B. burgdorferi culture (90 μL) to achieve a 50 μM final drug concentration per well. The plates were then incubated at 33° C. for 7 days at which point the SYBR/PI rapid viability assay was performed in a fluorescence plate reader to obtain the green-red fluorescence ratio.

[3] = tested on: stationary phase B. burgdorferi; assay: Residual viable B. burgdorferi by epifluorescence microscope counting after drug exposure; details: for viability at 50 µM: Borreliella burgdorferi, 168 h, read-out: Residual viable cells (Microscopy)
Procedure: as §1, §2, §3

[4] = Borreliella burgdorferi, read-out: MIC
[5] = read-out: Residual viable cells (SYBR/PI), Table 3, 7-day old stationary phase cells treated for 7 days
[6] = read-out: Residual viable cells (SYBR Green/PI), Table 1, 7 day old stationary phase cells treated for 7 days
[7] = 7 day old stationary phase cells treated for 7 days
[8] = 7-day old stationary phase cells treated for 7 days
[9] = Table 1, drugs 50 μM, 7 day old stationary phase cells treated for 7 days
[10] = Table 3, drugs 50 μM, 7-day old stationary phase cells treated for 7 days

Row | Compound | MIC [1, 4] [µg/mL] | viability at 50 µM [2, 5] [%] | activity against stationary phase B. burgdorferi (in words) [2] | viability at 50 µM [3] [%] | viability at 50 µM [2, 6] [%] | MIC [1] [µg/mL] | Residual viable cells (SYBR Green/PI) [2, 7] [%] | Residual viable cells (SYBR/PI) [2, 8] [%] | Residual viable cells (Microscopy) [3, 9] [%] | Residual viable cells (Microscopy) [3, 10] [%] | Residual viable cells (Microscopy) [3] [%]
1 | CCCCCCCCCCCC[N+](C)(C)Cc1ccccc1 [Benzododecinium chloride] | 0.6 to 1.2 | 40 | very high activities | – | – | – | – | – | – | – | –
2 | CCCCCCCCCCCCCCCC[N+](C)(C)CCN(Cc1ccc(OC)cc1)c1ncccn1 [Thonzonium bromide] | 0.92 to 1.85 | 31 | very high activities; also recorded: comparable activity to daptomycin | 33 | – | – | – | – | – | – | –
3 | OC(Cn1cncn1)(Cn1cncn1)c1ccc(F)cc1F [Fluconazole] | 0.48 to 0.96 | 55 | reasonable activity | 45 | 55 | – | – | – | – | – | –
4 | Cc1c(-c2cnccn2)ssc1=S [Oltipraz] | 0.71 to 1.41 | 46 | high activity | 55 | 46 | – | – | – | – | – | –
5 | Dextrorphan tartrate | – | – | high activity | – | – | 1.27 to 2.55 | 47 | 47 | 43 | 43 | –
6 | Verteporfin | – | – | high activity | – | – | 4.49 to 8.98 | – | – | – | – | 47
7 | O=C(O)[C@@H]1CCC(O)=N1 (racemic) [Pidolic acid, DL-2-Pyrrolidone-5-Carboxylic Acid] | 0.81 to 1.61 | 43 | high activity | 45 | 45 | – | – | – | – | – | –
8 | Cc1cc(-n2c(=O)[nH]c(=O)n(C)c2=O)ccc1Oc1ccc(SC(F)(F)F)cc1 [Toltrazuril] | – | 43 | – | 60 | 43 | – | – | – | – | – | –
9 | CO[C@H]1/C=C/O[C@@]2(C)Oc3c(C)c(O)c4c(O)c(c(C=O)c(O)c4c3C2=O)NC(=O)/C(C)=C\C=C\[C@H](C)[C@H](O)[C@@H](C)[C@@H](O)[C@@H](C)[C@H](OC(C)=O)[C@@H]1C [3-formyl Rifamycin] | – | – | – | – | – | 2.27 to 4.54 | 42 | 42 | 59 | 59 | –
10 | Potassium antimonyl tartrate trihydrate [Tartar emetic] | – | – | – | – | – | – | 42 | 42 | 45 | 45 | –
11 | CC1(C)S[C@@H]2[C@H](NC(=O)C(C(=O)O)c3ccccc3)C(=O)N2[C@H]1C(=O)O (stereo partly shown) [Carbenicillin] | – | 46 | – | 64 | 46 | – | – | – | – | – | –
